This test has as its target T1, human IL-23R (Homo sapiens, UniProt Q5VWK5).
T1 sequence (Q5VWK5 22-629): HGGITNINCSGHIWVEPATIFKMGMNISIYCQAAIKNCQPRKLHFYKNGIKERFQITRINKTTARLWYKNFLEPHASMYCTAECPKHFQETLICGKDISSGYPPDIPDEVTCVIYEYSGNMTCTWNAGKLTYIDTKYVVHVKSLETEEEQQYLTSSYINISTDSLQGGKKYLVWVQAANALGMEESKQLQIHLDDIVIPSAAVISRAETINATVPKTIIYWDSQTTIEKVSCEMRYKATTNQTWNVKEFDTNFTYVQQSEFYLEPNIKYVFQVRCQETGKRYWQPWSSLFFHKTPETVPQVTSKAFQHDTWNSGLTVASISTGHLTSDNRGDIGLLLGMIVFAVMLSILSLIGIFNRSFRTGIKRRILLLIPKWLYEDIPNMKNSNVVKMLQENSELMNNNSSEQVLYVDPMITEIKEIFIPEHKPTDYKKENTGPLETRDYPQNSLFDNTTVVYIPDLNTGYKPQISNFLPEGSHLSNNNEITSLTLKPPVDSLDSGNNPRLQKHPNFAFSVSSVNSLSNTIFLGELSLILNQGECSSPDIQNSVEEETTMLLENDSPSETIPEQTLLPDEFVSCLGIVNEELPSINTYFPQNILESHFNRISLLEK
As to the kind of experiment: biochemical. Conditions: for Emax: read-out: % displacement (hIL-23R NIuc). From the text:
The compound binding affinity for IL-23R was estimated by the ability of compounds to displace a fluorophore-labelled reference compound from the human IL-23R. The assay principle relies on Bioluminescence Resonance Energy Transfer (BRET) between a fluorophore-labelled reference compound binding to the IL-23R part of a fusion protein consisting of the IL-23R fused to a Nanoluc luciferase enzyme (Nanoluc). The Nanoluc is placed in the N-terminus in close proximity to the binding domain of the ligand. Upon close proximity between the fluorophore of the fluorophore-labelled compound and the Nanoluc of the fusion protein, bioluminescence energy generated from conversion of a Nanoluc substrate, is transferred to the fluorophore resulting in an increase in BRET. In presence of an unlabelled compound, the unlabelled compound displaces the fluorophore-labelled peptide from its binding site resulting in a decrease in BRET. The concentration for which half of the fluorophore-labelled peptide is displaced by the unlabelled compound depends on the affinity of the compound for the IL-23R, and is termed the IC50 concentration.
The plasmid also contained a gene to confer resistance for the antibiotic hygromycin. A cell line stably expressing the Nluc-IL23R fusion protein was generated by transfection of HEK293 cells with the expression plasmid and selected with hygromycin for 3 weeks in Growth medium consisting of DMEM w/ Glutamax-I containing, 10% V/V FBS, 1% V/V P/S, 1 mM Sodium Pyruvate, and 1X NEAA, and 0.3 mg/mL hygromycin. The remaining cells were propagated and considered a stable expressing Nluc-IL23R fusion protein pool clone.
Cells expressing the Nluc-IL23R fusion protein were expanded in Growth medium and membranes prepared by homogenization of a cell pellet from 18 T175 flasks (4 °C in subsequent steps). The cell pellet was lysed Tris 10 mM, 7.5, 1 mM EDTA and protease inhibitors (Complete, Roche) and homogenized using a 15 mL glass-dounce by 50 strokes. The homogenate was spun at spin @1500 rpm for 10 min, the supernatant transferred to SV-34 tubes and spun at 40000g for 20 min at 4 °C to pellet the crude membranes. The supernatant was then removed, the pellet resuspended in 5 mL buffer containing 50 mM HEPES pH 7.4, 5 mM EGTA, and 5 mM MgCl2, and homogenized. Aliquots of the resuspended and homogenized membranes containing the Nluc-IL23R fusion protein were stored at -80 °C until use.
The plate was sealed with light impermeable plate seals, and incubated on an orbital shaker 400 rpm for 2 hours at room temperature. To determine the BRET ratio, the plate seal was removed and 25 µL of the Nanoluc substrate (Promega N1572) diluted 1:500 was added to each well and incubated for 1-2 minutes on an orbital shaker at 400 rpm. […] The BRET ratio was calculated as the fluorescence from the TAMRA/nanoluc bioluminescence.
Compound potency (IC50) and maximal displacement (% displacement) were estimated by computer-aided curve fitting using a 4-parameter logistic (4PL) non-linear model. […]
In this application, the inventors provide the data as IC50 values.

The results in this text go back to patent EP4471048A1, “PEPTIDE INHIBITORS OF INTERLEUKIN-23 RECEPTOR” (Zealand Pharma A/S, priority 2023, dated 2024).

The term IC50 denotes the point on the concentration scale where inhibition reaches its midpoint. Higher therefore signals weaker potency.

`CCCOc1ccc(C[C@@H]2NC(=O)[C@@H]3CCC(=O)N[C@@H](CCCCNC(=O)CC[C@@H](C(=O)NCCCCc4cccnc4)NC(=O)[C@](C)(CC(C)C)NC(=O)[C@H](Cc4ccc5ccccc5c4)NC2=O)C(=O)N[C@@H]([C@@H](C)CC)C(=O)N[C@@H](C(C)C)C(=O)N[C@@H](Cc2c[nH]c4ccccc24)C(=O)N[C@@H](CCC(N)=O)C(=O)N3)cc1` [Compound 32, K(1c)(6c)^†IVWQE(6c)[Y(nPr)][2-Nal][2-Me-Leu]E(1c)-[NH-4-(pyridin-3-yl)butanyl]]: it took 320 nM to reach half-maximal inhibition (IC50) and the Emax was determined as 99%. For `CCCCc1ccc(C[C@@H]2NC(=O)[C@@H]3CCC(=O)N[C@@H](CCCCNC(=O)CC[C@@H](C(=O)N[C@@H](CCN)C(=O)N[C@@H](Cc4cccnc4)C(=O)NC)NC(=O)[C@](C)(CC(C)C)NC(=O)[C@H](Cc4ccc5ccccc5c4)NC2=O)C(=O)N[C@@H]([C@@H](C)CC)C(=O)N[C@@H](C(C)C)C(=O)N[C@@H](Cc2c[nH]c4ccccc24)C(=O)N[C@@H](CCC(N)=O)C(=O)N3)cc1` [Compound 33, K(1c)(6c)^†IVWQE(6c)[F(4-Bu)][2-Nal][2-Me-Leu]E(1c)[Dab][3-(3-Pyridyl)-Ala]-[NHMe]], in that order: 0.76 nM and 102%. For `CC[C@H](C)[C@@H]1NC(=O)[C@@H]2CCCCNC(=O)CC[C@@H](C(=O)N[C@@H](CCN)C(=O)N[C@@H](Cc3cccnc3)C(=O)NC)NC(=O)[C@](C)(CC(C)C)NC(=O)[C@H](Cc3ccc4ccccc4c3)NC(=O)[C@H](Cc3ccc(OCc4ccccc4)cc3)NC(=O)[C@H](CCC(=O)N2)NC(=O)[C@H](CCC(N)=O)NC(=O)[C@H](Cc2c[nH]c3ccccc23)NC(=O)[C@H](C(C)C)NC1=O` [Compound 34, K(1c)(6c)^†IVWQE(6c)[Y(Bn)][2-Nal][2-Me-Leu]E(1c)[Dab][3-(3-Pyridyl)-Ala]-[NHMe]], in that order: 0.62 nM and 100%. For `CC[C@H](C)[C@@H]1NC(=O)[C@@H]2CCCCNC(=O)CC[C@@H](C(=O)N[C@@H](CCN)C(=O)N[C@@H](Cc3cccnc3)C(=O)NC)NC(=O)[C@](C)(CC(C)C)NC(=O)[C@H](Cc3ccc4ccccc4c3)NC(=O)[C@H](Cc3ccc(OC)cc3)NC(=O)[C@H](CCC(=O)N2)NC(=O)[C@H](CCC(N)=O)NC(=O)[C@H](Cc2c[nH]c3ccccc23)NC(=O)[C@H](C(C)C)NC1=O` [Compound 35, K(1c)(6c)^†IVWQE(6c)[Y(Me)][2-Nal][2-Me-Leu]E(1c)[Dab][3-(3-Pyridyl)-Ala]-[NHMe]] the same measures were 0.11 nM and 98%. As for `CNC(=O)[C@H](Cc1cccnc1)NC(=O)[C@H](CCN)NC(=O)[C@@H]1CCC(=O)NCC[C@@H]2NC(=O)CC[C@H](NC(=O)[C@H](CCC(N)=O)NC(=O)[C@H](Cc3c[nH]c4ccccc34)NC(=O)[C@H]([C@@H](C)O)NC2=O)C(=O)N[C@@H](Cc2ccc(OCCN)cc2)C(=O)N[C@@H](Cc2ccc3ccccc3c2)C(=O)N[C@@](C)(CC(C)C)C(=O)N1` [Compound 37, [Dab](1c)(6c)^†TWQE(6c)[Y(2-aminoethoxy)][2-Nal][2-Me-Leu]E(1c)[Dab][3-(3-Pyridyl)-Ala]-[NHMe]], it took 1.4 nM to reach half-maximal inhibition (IC50) and the Emax came out at 99%. For `CNC(=O)[C@H](Cc1cccnc1)NC(=O)[C@H](CCN)NC(=O)[C@@H]1CCC(=O)NCCCC[C@@H]2NC(=O)CCC[C@H](NC(=O)[C@H](CCC(N)=O)NC(=O)[C@H](Cc3c[nH]c4ccccc34)NC(=O)[C@H]([C@@H](C)O)NC2=O)C(=O)N[C@@H](Cc2ccc(OCCN)cc2)C(=O)N[C@@H](Cc2ccc3ccccc3c2)C(=O)N[C@@](C)(CC(C)C)C(=O)N1` [Compound 38, K(1c)(6c)^†TWQ[hGlu](6c)[Y(2-aminoethoxy)][2-Nal][2-Me-Leu]E(1c)[Dab][3-(3-Pyridyl)-Ala]-[NHMe]], in that order: 1.5 nM and 101%. `CNC(=O)[C@H](Cc1cccnc1)NC(=O)[C@H](CCN)NC(=O)[C@@H]1CCCNC(=O)CC[C@@H]2NC(=O)CC[C@H](NC(=O)[C@H](CCC(N)=O)NC(=O)[C@H](Cc3c[nH]c4ccccc34)NC(=O)[C@H]([C@@H](C)O)NC2=O)C(=O)N[C@@H](Cc2ccc(OCCN)cc2)C(=O)N[C@@H](Cc2ccc3ccccc3c2)C(=O)N[C@@](C)(CC(C)C)C(=O)N1` [Compound 40, E(1c)(6c)^†TWQE(6c)[Y(2-aminoethoxy)][2-Nal][2-Me-Leu][Orn](1c)[Dab][3-(3-Pyridyl)-Ala]-[NHMe]]: the Emax came to 100%. Consider `CNC(=O)[C@H](Cc1cccnc1)NC(=O)[C@H](CCN)NC(=O)[C@@H]1CCC(=O)NCCCC[C@H]2C(=O)N[C@@H]([C@@H](C)O)C(=O)N[C@@H](Cc3c[nH]c4ccccc34)C(=O)N[C@@H](CCC(N)=O)C(=O)N[C@@H](Cc3cn2nn3)C(=O)N[C@@H](Cc2ccc(OCCN)cc2)C(=O)N[C@@H](Cc2ccc3ccccc3c2)C(=O)N[C@@](C)(CC(C)C)C(=O)N1` [Compound 41, [(N3)-K](1c)(6g)^†TWQ[Pra](6g)[Y(2-aminoethoxy)][2-Nal][2-Me-Leu]E(1c)[Dab][3-(3-Pyridyl)-Ala]-[NHMe]], for which half-maximal inhibition (IC50) was put at 1.5 nM and the Emax amounted to 98%. For `CNC(=O)[C@H](Cc1cccnc1)NC(=O)[C@H](CCN)NC(=O)[C@@H]1CCC(=O)NCCCC[C@@H]2C(=O)N[C@@H]([C@@H](C)O)C(=O)N[C@@H](Cc3c[nH]c4ccccc34)C(=O)N[C@@H](CCC(N)=O)C(=O)N[C@@H](CCc3cn2nn3)C(=O)N[C@@H](Cc2ccc(OCCN)cc2)C(=O)N[C@@H](Cc2ccc3ccccc3c2)C(=O)N[C@@](C)(CC(C)C)C(=O)N1` [Compound 42, [{d}(N3)-K](1c)(6g)^†TWQ[Hpg](6g)[Y(2-aminoethoxy)][2-Nal][2-Me-Leu]E(1c)[Dab][3-(3-Pyridyl)-Ala]-[NHMe]], in that order: 1.9 nM and 96%. In the case of `COc1ccc(C[C@@H]2NC(=O)[C@@H]3CCC(=O)N[C@@H](CCCCNC(=O)CC[C@@H](C(=O)N[C@@H](CCCCNC(=O)c4ccccn4)C(N)=O)NC(=O)[C@](C)(CC(C)C)NC(=O)[C@H](Cc4ccc5ccccc5c4)NC2=O)C(=O)N[C@@H]([C@@H](C)O)C(=O)N[C@@H](C(C)C)C(=O)N[C@@H](Cc2c[nH]c4ccccc24)C(=O)N[C@@H](CCC(N)=O)C(=O)N3)cc1` [Compound 47, K(1c)(6c)^†TVWQE(6c)[Y(Me)][2-Nal][2-Me-Leu]E(1c)[K(piconilate)]-[NH2]], the IC50 amounted to 730 nM and the Emax was 99%. For `COc1ccc(C[C@@H]2NC(=O)[C@@H]3CCC(=O)N[C@@H](CCCCNC(=O)CC[C@@H](C(=O)N[C@@H](CCCCNC(=O)Cc4ccccn4)C(N)=O)NC(=O)[C@](C)(CC(C)C)NC(=O)[C@H](Cc4ccc5ccccc5c4)NC2=O)C(=O)N[C@@H]([C@@H](C)O)C(=O)N[C@@H](C(C)C)C(=O)N[C@@H](Cc2c[nH]c4ccccc24)C(=O)N[C@@H](CCC(N)=O)C(=O)N3)cc1` [Compound 48, K(1c)(6c)^†TVWQE(6c)[Y(Me)][2-Nal][2-Me-Leu]E(1c)[K(2-pyridylacetyl)]-[NH2]] the same measures were 290 nM and 101%.
